{"source": "patent US10292958B2", "about": "“Lipid-containing compositions and methods of use thereof” (ASHA NUTRITION SCIENCES, INC., priority 2008, dated 2019)", "key": {"[1]": {"tested_on": "inflammation, immunity, infection", "conditions": "menopausal person; 11 g LA; ALA reduced from 1.8 g to 1.2 g"}, "ovulation": {"tested_on": "ovulation", "assay": "Case study on ovulation, reproductive disorders", "assay_type": "in vivo, human", "conditions": "person", "excerpt": "In a host subject cessation of ovulation (as indicated by watery pale menstrual cycles), intense ovulation-related pains and anovulatry menstruation at extremely low omega-6 fatty acids in diet were observed; olive oil being the main fat source. It is hypothesized herein that this was due to deficiency of omega-6 derived prostaglandins, which aid ovulation."}, "[2]": {"conditions": "cited from earlier work; for effect on blood cholesterol: saturated fats of chain-length 12, 14 and 16"}}, "data": [{"smiles": "CC/C=C\\C/C=C\\C/C=C\\CCCCCCCC(=O)O", "note": "[ALA, Alpha-linolenic Acid]", "values": [{"measurement": "symptoms (spinal burning sensation, heat in the body, delayed wound healing, vaginal yeast infection)", "setting": "[1]", "result": "disappeared"}]}, {"smiles": "CC(C)Cc1ccc(C(C)C(=O)O)cc1", "note": "(stereo not shown) [Advil]", "values": [{"measurement": "cessation of ovulation, ovulation-related pains, anovulatory menstruation", "setting": "ovulation", "result": "same phenomenon was observed"}]}, {"smiles": "CCCCCCCCCCCCCCCCCC(=O)O", "note": "[Stearic acid]", "values": [{"measurement": "lowering of cholesterol", "setting": "[2]; in vivo", "result": 21, "unit": "%"}]}, {"smiles": "CCCCCCCCCCCC(=O)O", "note": "[lauric acid]", "values": [{"measurement": "effect on blood cholesterol", "setting": "[2]", "result": "elevate blood cholesterol"}]}, {"smiles": "CCCCCCCCCCCCCC(=O)O", "note": "[myristic acid]", "values": [{"measurement": "effect on blood cholesterol", "setting": "[2]", "result": "elevate blood cholesterol"}]}, {"smiles": "CCCCCCCC/C=C\\CCCCCCCC(=O)O", "note": "[oleic acid]", "values": [{"measurement": "lowering of LDL", "setting": "[2]; in vivo", "result": 15, "unit": "%"}]}, {"smiles": "CCCCCCCCCCCCCCCC(=O)O", "note": "[palmitic acid]", "values": [{"measurement": "effect on blood cholesterol", "setting": "[2]", "result": "elevate blood cholesterol"}]}]}
